Test results reported in patent US20210087184A1, “AMINO-BENZOISOTHIAZOLE AND AMINO-BENZOISOTHIADIAZOLE AMIDE COMPOUNDS” (Aerie Pharmaceuticals, Inc., priority 2018, published 2021).
Counter-ions that a name gives are not always drawn.

Experiment: Topical pharmaceutical composition administered to the eyes (Examples 246-253)
Format: in vivo
Conditions: for intraocular pressure / neuroprotective agent: 0.50 wt % topical eye drop composition of Example 246
Description: Topical pharmaceutical compositions for lowering intraocular pressure are prepared by conventional methods and formulated as follows: […]
A compound according to this disclosure is used as the 6-aminobenzoisothiazole derivative. […]

[1] = 0.50 wt % topical eye drop composition of Example 246, twice per day

Row | SMILES | intraocular pressure | neuroprotective agent | hyperemia, redness and ocular irritation (0.50 wt % topical eye drop composition of Example 246, as needed) | allergic symptoms [1] | dry eye syndrome [1]
1 | Cl.Cl.NCC(C(=O)Nc1ccc2cnsc2c1F)c1ccsc1 (stereo not drawn) [3-amino-N-(7-fluoro-benzoisothiazol-6-yl)-2-(thiophen-3-yl)propanamide dihydrochloride] | substantially decreases | serves as a neuroprotective agent | – | – | –
2 | NC(CC(=O)Nc1ccc2cnsc2c1)c1ccsc1 (stereo not drawn) [Example E6, 3-amino-N-(benzoisothiazol-6-yl)-3-(thiophen-3-yl)propanamide dihydrochloride] | substantially decreases | serves as a neuroprotective agent | – | – | –
3 | CN(C)CC(C(=O)Nc1ccc2cnsc2c1)c1ccsc1 (stereo not drawn) [Example E44, 3-(dimethylamino)-N-(benzoisothiazol-6-yl)-2-(thiophen-3-yl)propanamide dihydrochloride] | – | – | substantially decreases | – | –
4 | NCC(C(=O)Nc1ccc2cnsc2c1)c1ccsc1 (stereo not drawn) [Example E49, 3-amino-N-(benzoisothiazol-6-yl)-2-(thiophen-3-yl)propanamide dihydrochloride] | substantially decreases | – | – | – | –
5 | O=C(NCc1ccccn1)c1ccc([C@H]2C[C@@H]2C(=O)Nc2ccc3cnsc3c2)cc1 [Example E150, 4-((1S,2S)-2-(benzoisothiazol-6-ylcarbamoyl)cyclopropyl)-N-(pyridin-2-ylmethyl)benzamide] | substantially decreases | – | – | substantially decreases | relieves
